This is an account of results in PMC3433414, “Oral Administration of the Pimelic Diphenylamide HDAC Inhibitor HDACi 4b Is Unsuitable for Chronic Inhibition of HDAC Activity in the CNS In Vivo” (PLoS ONE, 2012).

One series concerns the target T1, AT2 (h) (Homo sapiens, UniProt P50052).
T1 construct: purchased Cerep (Diversity Profile)
The series is described as follows: Cerep binding, agonist radioligand. The settings on record: read-out: % inhibition of control specific binding. From the text: (§1) In addition to the HDAC profiling performed, we also queried 4b for any apparent potential off-target effects, which could complicate any finding of efficacy or adverse events in vivo due to ‘polypharmacy’. This was accomplished by screening against a ‘diversity panel’ of 72 binding and 29 enzyme assays, comprised of roughly equal numbers of selective central and peripheral therapeutically relevant targets (Cerep Diversity Profile). This panel included representative targets from diverse enzyme families, G protein coupled receptors, steroid nuclear receptors, voltage- and ligand-gated ion channels. While not totally inclusive, it is a useful tool for discovery compounds to assess their viability as proof of concept molecules to specifically query a particular target. 4b was initially screened at 10 µM in duplicate. The full set of results is provided as Table S1. […] This clean in vitro profile was considered acceptable to proceed to ADME and pharmacokinetic studies.

For the next series, the system named is GABA (non‐selective). The experiment in a line: Cerep binding, agonist radioligand. The settings on record: 10 μM.
Excerpt: as §1

In the next series the target is T2, CB2 (h) (Homo sapiens, UniProt P34972).
T2 construct: purchased Cerep (Diversity Profile)
The series is described as follows: Cerep binding, agonist radioligand. The conditions noted are these: read-out: % inhibition of control specific binding.
Excerpt: as §1

Another series deals with T3, V1a (h) (Homo sapiens, UniProt P37288).
T3 construct: purchased Cerep (Diversity Profile)
The series is described as follows: Cerep binding, agonist radioligand. The conditions noted are these: read-out: % inhibition of control specific binding.
Excerpt: as §1

For another series, the target named is T4, CCK2 (CCKB) (h) (Homo sapiens, UniProt P32239).
T4 construct: purchased Cerep (Diversity Profile)
The experiment in a line: Cerep binding, agonist radioligand. The conditions noted are these: read-out: % inhibition of control specific binding.
Excerpt: as §1

A further series addresses T5, MC4 (h) (Homo sapiens, UniProt P32245).
T5 construct: purchased Cerep (Diversity Profile)
The series is described as follows: Cerep binding, agonist radioligand. The settings on record: read-out: % inhibition of control specific binding.
Excerpt: as §1

Another series has as its target T6, NK1 (h) (Homo sapiens, UniProt P25103).
T6 construct: purchased Cerep (Diversity Profile)
The experiment in a line: Cerep binding, agonist radioligand. The conditions noted are these: read-out: % inhibition of control specific binding.
Excerpt: as §1

In another series the target is T7, BLT1 (LTB4) (h) (Homo sapiens, UniProt Q15722).
T7 construct: purchased Cerep (Diversity Profile)
The experiment in a line: Cerep binding, agonist radioligand. The settings on record: read-out: % inhibition of control specific binding.
Excerpt: as §1

Another series deals with T8, CB1 (h) (Homo sapiens, UniProt P21554).
T8 construct: purchased Cerep (Diversity Profile)
The experiment in a line: Cerep binding, agonist radioligand. The settings on record: read-out: % inhibition of control specific binding.
Excerpt: as §1

A further series has as its target T9, PPAR (h) (Homo sapiens, UniProt P37231).
T9 construct: purchased Cerep (Diversity Profile)
The series is described as follows: Cerep binding, agonist radioligand. The conditions noted are these: read-out: % inhibition of control specific binding.
Excerpt: as §1

The next series deals with T10, V2 (h) (Homo sapiens, UniProt P30518).
T10 construct: purchased Cerep (Diversity Profile)
The experiment in a line: Cerep binding, agonist radioligand. The conditions noted are these: read-out: % inhibition of control specific binding.
Excerpt: as §1

A further series addresses T11, EP2 (h) (Homo sapiens, UniProt P43116).
T11 construct: purchased Cerep (Diversity Profile)
The series is described as follows: Cerep binding, agonist radioligand. The settings on record: read-out: % inhibition of control specific binding.
Excerpt: as §1

The target of the next series is T12, A3 (h) (Homo sapiens, UniProt P0DMS8).
T12 construct: purchased Cerep (Diversity Profile)
The experiment in a line: Cerep binding, agonist radioligand. The conditions noted are these: read-out: % inhibition of control specific binding.
Excerpt: as §1

The target of the next series is T13, PR (h) (Homo sapiens, UniProt P06401).
T13 construct: purchased Cerep (Diversity Profile)
The series is described as follows: Cerep binding, agonist radioligand. The settings on record: read-out: % inhibition of control specific binding.
Excerpt: as §1

For another series, the target named is T14, A2A (h) (Homo sapiens, UniProt P29274).
T14 construct: purchased Cerep (Diversity Profile)
The series is described as follows: Cerep binding, agonist radioligand. The conditions noted are these: read-out: % inhibition of control specific binding.
Excerpt: as §1

Series [1] can be described thus: Hepatic microsomal stability. The format is in vitro ADME, mouse. The conditions noted are these: for predicted in vivo plasma clearance: from mouse microsomal half-life; for half-life at 1 µM: pooled hepatic microsomes, pH 7.4, mouse. How it is done: Incubations of test compounds (1 µM initial concentration, n = 2) were carried out with pooled hepatic microsomes (0.25 mg protein/mL in 0.1 M phosphate buffer pH 7.4). NADPH (1 mM) was added to initiate the reactions. The incubations were performed at 37°C. Samples (100 µL) were taken from the incubation at 0, 5, 10, 20 and 40 min and added to 100 µL of acetonitrile containing carbamazepine as analytical internal standard, to terminate the reaction. Samples were centrifuged and the supernatant fractions analysed by LC-MS/MS. The instrument responses (i.e. chromatographic peak heights), normalized by internal standard response were referenced to the zero time-point samples (as 100%) in order to determine the percentage of compound remaining.
Ln plots of the % remaining, for each compound, were used to determine the half-life for the microsomal incubations.
Half-life values were calculated from the relationship. [drawing 2] where λ was the slope of the Ln concentration vs time curve.
The in vitro intrinsic clearance, CLint (µL/min/mg microsomal protein), was calculated using the following formula: [drawing 3]
When quantification was required, calibration standards for parent compound and metabolites were prepared in control hepatic microsomes and extracted and analysed as described for the study samples. Quantification of parent compound or metabolite was by extrapolation from the calibration line.

Series [2] can be described thus: Solubility in water, formulations and DMSO. The class given is physicochemical. On the procedure: Thomas and colleagues reported that a solution of 4b at 1 mg/mL was previously obtained using this procedure. […] We therefore prepared both TFA and hydrochloride (HCl) salts of 4b to establish whether they could offer improved solubility. Neither salt form of 4b was particularly soluble in water (<1 mg/ml). […] A study of the stability of the TFA salt also raised another more worrying issue in the use of 2-hydroxypropyl-β-cyclodextrin–complexed 4b salts for potential in vivo studies. […] The 4b. TFA cyclodextrin suspension targeted at 1 mg/ml with heating gave an initial (day 1) measured value of 0.75 mg/ml total 4b, with only 0.27 mg/mL solubilised as quantified in the sample after filtration. The lower than expected initial quantification of 4b was most likely due to the TFA salt rapidly degrading upon heating. Indeed, we always found the presence of the cyclised benzimidazole conversion product, named throughout as product C1, in the salt formulations even at t = 0 after preparation. Furthermore, the suspension was not stable upon standing in the dark with gentle shaking at room temperature, with a further 28% decrease observed in parent (4b) concentration on day 7 analysis, compared to day 1.
As a consequence de novo formulation attempts were made with the stable free base form. After several trials with different excipients, we were able to reach a soluble formulation preparation of 1 mg/ml 4b in 2% N-methyl-2-pyrollidone, 18% polyethylene glycol 400, 10% solutol HS-15 and 70% (1% Lutrol F68 in water), a vehicle which we have previously used without any adverse effects in R6/2 model chronic efficacy trials, but is unlikely to be palatable to mice in drinking water. With this concentration, a single oral gavage dose will result in a maximum of 10 mg/kg dose level (assuming a maximum dose volume of […]), considerably lower than that estimated to have been used by Thomas et al (150 mg/kg day in drinking water). In an attempt to replicate the original dose level as close as possible, it became necessary to formulate the test compound in suspension. We achieved a stable homogeneous suspension of free base 4b up to 100 mg/ml in 0.5% carboxymethylcellulose (medium viscosity) in reverse osmosis deionized (RODI) water. This suspension was used to evaluate the oral pharmacokinetics of 4b in mice. […]

The mark [3] stands for this setting: mouse, 1 µM, with NADPH, read-out: in vitro half-life in hepatic microsomes.

In brackets after ≈: the same amount, converted by molar mass. Read-outs that look alike come from different tables or passages of the source. Some results are limits rather than exact numbers.

A word on the inhibition: it is the share of the control response that was lost under treatment. The half-life is the time in which the quantity being followed falls by half.

T10 sequence (P30518 whole entry): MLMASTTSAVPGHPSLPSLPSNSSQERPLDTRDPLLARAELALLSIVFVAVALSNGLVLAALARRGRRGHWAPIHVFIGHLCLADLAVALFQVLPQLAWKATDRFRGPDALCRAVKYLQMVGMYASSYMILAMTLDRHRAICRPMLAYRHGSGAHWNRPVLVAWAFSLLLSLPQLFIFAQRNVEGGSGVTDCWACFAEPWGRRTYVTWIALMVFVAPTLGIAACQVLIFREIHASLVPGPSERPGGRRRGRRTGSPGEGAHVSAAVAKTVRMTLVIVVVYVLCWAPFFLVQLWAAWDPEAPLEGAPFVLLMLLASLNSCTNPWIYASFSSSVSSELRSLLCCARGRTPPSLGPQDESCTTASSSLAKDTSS
T13 sequence (P06401 whole entry): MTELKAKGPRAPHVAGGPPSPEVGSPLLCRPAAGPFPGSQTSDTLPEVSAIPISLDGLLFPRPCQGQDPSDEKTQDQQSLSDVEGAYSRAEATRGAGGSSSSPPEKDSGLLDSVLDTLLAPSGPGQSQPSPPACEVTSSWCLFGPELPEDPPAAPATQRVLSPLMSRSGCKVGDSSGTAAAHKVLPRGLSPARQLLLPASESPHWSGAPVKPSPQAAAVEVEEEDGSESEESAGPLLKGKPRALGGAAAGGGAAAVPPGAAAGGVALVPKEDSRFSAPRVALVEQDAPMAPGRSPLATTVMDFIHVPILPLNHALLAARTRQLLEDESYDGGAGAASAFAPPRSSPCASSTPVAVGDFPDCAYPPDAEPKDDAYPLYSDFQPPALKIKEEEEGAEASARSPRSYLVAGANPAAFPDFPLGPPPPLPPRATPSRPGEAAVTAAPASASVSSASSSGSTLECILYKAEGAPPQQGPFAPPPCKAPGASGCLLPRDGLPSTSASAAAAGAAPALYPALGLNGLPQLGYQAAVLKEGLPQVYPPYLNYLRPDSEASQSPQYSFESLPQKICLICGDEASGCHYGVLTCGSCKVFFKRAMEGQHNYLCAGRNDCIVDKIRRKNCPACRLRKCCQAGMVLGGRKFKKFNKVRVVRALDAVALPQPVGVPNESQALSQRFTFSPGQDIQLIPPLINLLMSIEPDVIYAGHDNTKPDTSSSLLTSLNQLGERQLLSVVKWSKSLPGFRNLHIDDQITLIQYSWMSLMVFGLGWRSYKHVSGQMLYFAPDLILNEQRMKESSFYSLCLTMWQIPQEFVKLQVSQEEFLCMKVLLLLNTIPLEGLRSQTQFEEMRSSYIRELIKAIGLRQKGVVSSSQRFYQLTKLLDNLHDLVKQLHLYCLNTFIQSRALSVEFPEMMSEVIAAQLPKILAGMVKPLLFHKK
T14 sequence (P29274 whole entry): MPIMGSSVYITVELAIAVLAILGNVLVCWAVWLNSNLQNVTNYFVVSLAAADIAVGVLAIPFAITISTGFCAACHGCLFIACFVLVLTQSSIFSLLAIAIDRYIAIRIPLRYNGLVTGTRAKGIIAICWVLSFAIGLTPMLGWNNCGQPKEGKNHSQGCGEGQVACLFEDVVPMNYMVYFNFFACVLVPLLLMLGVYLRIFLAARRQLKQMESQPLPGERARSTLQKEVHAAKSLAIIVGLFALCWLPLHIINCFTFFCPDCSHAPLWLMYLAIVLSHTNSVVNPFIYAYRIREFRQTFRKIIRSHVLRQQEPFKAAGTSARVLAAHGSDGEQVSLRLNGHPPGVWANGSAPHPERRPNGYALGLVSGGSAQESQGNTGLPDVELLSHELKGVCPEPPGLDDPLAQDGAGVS
T3 sequence (P37288 whole entry): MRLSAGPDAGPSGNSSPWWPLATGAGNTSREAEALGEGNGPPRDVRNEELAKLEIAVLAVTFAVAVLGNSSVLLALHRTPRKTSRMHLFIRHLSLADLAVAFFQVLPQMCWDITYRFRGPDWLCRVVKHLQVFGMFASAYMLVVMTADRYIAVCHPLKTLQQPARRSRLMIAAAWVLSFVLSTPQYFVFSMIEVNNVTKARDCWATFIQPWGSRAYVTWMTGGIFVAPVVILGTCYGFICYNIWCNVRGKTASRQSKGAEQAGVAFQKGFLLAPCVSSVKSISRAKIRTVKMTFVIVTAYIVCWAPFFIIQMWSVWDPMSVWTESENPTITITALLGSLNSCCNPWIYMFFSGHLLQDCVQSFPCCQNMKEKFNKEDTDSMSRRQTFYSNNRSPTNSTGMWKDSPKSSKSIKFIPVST
T11 sequence (P43116 whole entry): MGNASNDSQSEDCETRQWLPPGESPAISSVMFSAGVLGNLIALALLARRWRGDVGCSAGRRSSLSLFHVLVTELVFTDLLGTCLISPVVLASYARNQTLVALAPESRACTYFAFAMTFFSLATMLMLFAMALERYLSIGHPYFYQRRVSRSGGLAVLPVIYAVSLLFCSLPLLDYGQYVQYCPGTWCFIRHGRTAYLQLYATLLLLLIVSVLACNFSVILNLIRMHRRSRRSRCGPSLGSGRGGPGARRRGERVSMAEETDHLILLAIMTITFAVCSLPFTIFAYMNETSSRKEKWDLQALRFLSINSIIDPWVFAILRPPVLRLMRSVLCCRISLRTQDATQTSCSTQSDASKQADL
T8 sequence (P21554 whole entry): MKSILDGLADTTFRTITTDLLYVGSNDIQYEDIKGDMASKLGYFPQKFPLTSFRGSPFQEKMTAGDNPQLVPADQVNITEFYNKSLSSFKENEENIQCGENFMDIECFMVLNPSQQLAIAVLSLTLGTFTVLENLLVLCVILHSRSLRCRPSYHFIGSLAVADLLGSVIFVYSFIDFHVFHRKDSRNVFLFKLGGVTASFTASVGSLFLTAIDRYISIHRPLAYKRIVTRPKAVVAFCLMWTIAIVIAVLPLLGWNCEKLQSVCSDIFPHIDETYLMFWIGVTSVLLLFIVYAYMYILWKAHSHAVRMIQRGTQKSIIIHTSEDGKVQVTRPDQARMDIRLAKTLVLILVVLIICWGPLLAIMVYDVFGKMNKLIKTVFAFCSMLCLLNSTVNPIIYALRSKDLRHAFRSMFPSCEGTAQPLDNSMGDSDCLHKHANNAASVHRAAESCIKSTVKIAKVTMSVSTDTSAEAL
T2 sequence (P34972 whole entry): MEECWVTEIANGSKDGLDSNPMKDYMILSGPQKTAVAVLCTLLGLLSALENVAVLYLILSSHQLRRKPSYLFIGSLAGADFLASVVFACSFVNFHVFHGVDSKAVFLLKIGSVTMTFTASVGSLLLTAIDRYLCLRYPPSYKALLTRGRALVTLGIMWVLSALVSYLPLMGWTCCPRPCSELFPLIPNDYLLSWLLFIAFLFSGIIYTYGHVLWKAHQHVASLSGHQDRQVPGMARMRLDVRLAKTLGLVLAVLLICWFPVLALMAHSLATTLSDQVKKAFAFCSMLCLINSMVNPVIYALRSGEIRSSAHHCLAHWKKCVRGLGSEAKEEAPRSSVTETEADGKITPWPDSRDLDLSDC
T4 sequence (P32239 whole entry): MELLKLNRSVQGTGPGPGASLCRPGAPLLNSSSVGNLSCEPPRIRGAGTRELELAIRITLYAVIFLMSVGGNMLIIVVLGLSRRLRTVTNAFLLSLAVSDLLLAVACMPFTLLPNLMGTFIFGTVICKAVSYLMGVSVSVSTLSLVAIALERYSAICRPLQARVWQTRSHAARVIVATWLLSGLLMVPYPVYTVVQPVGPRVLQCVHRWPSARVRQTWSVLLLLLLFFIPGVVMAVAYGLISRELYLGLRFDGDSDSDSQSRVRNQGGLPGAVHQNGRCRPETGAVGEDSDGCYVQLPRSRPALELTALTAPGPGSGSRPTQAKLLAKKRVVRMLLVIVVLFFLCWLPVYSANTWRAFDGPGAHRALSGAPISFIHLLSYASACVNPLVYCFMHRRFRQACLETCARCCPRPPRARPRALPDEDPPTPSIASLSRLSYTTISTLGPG
T6 sequence (P25103 whole entry): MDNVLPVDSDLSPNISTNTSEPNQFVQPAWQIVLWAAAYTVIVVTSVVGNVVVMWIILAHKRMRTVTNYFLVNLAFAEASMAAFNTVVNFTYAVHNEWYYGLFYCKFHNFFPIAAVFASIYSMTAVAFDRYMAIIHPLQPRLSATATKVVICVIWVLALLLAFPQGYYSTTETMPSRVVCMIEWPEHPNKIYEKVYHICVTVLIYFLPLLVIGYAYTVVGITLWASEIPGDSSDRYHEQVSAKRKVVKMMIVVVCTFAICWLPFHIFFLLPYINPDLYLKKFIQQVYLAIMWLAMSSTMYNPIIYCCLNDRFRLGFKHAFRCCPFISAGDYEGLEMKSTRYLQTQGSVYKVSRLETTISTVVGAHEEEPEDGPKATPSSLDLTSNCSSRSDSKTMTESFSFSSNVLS
T7 sequence (Q15722 whole entry): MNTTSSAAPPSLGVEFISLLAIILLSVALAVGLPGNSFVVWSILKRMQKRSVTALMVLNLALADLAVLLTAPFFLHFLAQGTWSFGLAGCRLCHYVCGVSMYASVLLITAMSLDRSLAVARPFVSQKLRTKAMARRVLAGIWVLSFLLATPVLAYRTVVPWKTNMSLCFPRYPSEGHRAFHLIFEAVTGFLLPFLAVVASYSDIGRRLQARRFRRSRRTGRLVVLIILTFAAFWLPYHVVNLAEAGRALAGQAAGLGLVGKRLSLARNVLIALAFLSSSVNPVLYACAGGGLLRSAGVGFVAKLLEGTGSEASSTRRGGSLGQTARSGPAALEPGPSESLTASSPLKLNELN
T12 sequence (P0DMS8 whole entry): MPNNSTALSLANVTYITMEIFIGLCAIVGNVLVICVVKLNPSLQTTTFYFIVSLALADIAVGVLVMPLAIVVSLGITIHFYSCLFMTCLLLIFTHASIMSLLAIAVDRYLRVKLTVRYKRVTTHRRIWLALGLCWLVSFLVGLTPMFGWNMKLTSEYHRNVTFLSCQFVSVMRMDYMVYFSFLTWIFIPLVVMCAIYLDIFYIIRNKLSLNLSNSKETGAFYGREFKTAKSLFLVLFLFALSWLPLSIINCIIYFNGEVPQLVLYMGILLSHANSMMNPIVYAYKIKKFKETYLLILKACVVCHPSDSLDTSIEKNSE

With `Nc1ccccc1NC(=O)CCCCCC(=O)Nc1ccccc1` [Compound 4b], the inhibition at 10 µM on AT2 (h) amounted to 4%; at CB2 (h), 0%; at V1a (h), 10%; on CCK2 (CCKB) (h), 0%; on MC4 (h), 1%; on NK1 (h) it was 7%. For the same compound, the inhibition at 10 µM on BLT1 (LTB4) (h) was found to be 2%; on CB1 (h), 7%; on PPAR (h), 13%; at V2 (h) it was 6%; at EP2 (h), 15%; on A3 (h), 8%. Further, the inhibition at 10 µM at PR (h) and at A2A (h) was 0% in each case. The “% inhibition of control specific binding” value in the series on GABA (non‐selective) stood at 14%. The parent remaining in [1] (after 40 min incubation with mouse hepatic microsomes) is on record as 16%. In series [1], the “predicted in vivo plasma clearance” value is 43.3 mL/min/kg. Further, in [1] (mouse), the “predicted clearance as share of liver plasma flow” value is “approximately 87%”. Also, the half-life at 1 µM in series [1] (setting [3]) is about 20 min. The solubility in series [2] (NMP/PEG400/Solutol HS-15/Lutrol F68 aqueous vehicle, aqueous with cosolvent or surfactant or cyclodextrin, free base, 2% N-methyl-2-pyrollidone, 18% polyethylene glycol 400, 10% solutol HS-15, 70% (1% Lutrol F68 in water), read-out: soluble formulation concentration) worked out at 1000 µg/mL (≈ 3.07 mM). Besides, the “4b dissolved (filtrate of suspension)” value in series [2] (free base, 2-hydroxypropyl-β-cyclodextrin 1∶5 molar ratio, target 1 mg/mL) worked out at 0.1 mg/mL. In addition, in series [2] (neutral pH, free base), the solubility in water entry is on record as “highly insoluble”. Besides, the “solubility in DMSO” value in [2] (prepared at 1 mg/ml) is listed as “soluble”.
Regarding `O=C(CCCCCc1nc2ccccc2[nH]1)Nc1ccccc1` [Compound C1, 6-(1-H-benzo[d]imidazol-2-yl)-N-phenylhexanamide], the inhibition at 10 µM is 12% on AT2 (h) (10 μM); 3% at CB2 (h) (10 μM); 11% on V1a (h) (10 μM); 3% at CCK2 (CCKB) (h) (10 μM); 0% on MC4 (h) (10 μM); 9% at NK1 (h) (10 μM). For the same compound, the inhibition at 10 µM worked out at 0% at BLT1 (LTB4) (h) (10 μM); 18% on CB1 (h) (10 μM); 13% at PPAR (h) (10 μM); 5% on V2 (h) (10 μM); 24% on EP2 (h) (10 μM); 11% at A3 (h) (10 μM). The inhibition at 10 µM at PR (h) (10 μM) worked out at 1%; at A2A (h) (10 μM), 9%. In addition, the “% inhibition of control specific binding” value with GABA (non‐selective) is 5%. In series [1] (all incubations with 4b, below the limit of quantification), the “concentration of C1 in incubations with 4b” value is under 100 nM. In addition, the “predicted in vivo plasma clearance” value in series [1] was over 48.2 mL/min/kg. Moreover, the half-life at 1 µM in series [1] (setting [3]) is under 5 min; in [1] (mouse, without NADPH, read-out: in vitro half-life in liver microsomes) it was 7 min. The “solubility in aqueous media” value in [2] is recorded as “readily soluble”.
